Results reported in patent US20250250308A1, “METHODS AND COMPOSITIONS WITH ANTIFUNGAL ACTIVITY” (priority 2022, published 2025).
Values joined by “and” are separate entries in the source; they are usually repeats but may differ in a detail not shown here. Equal entries are not always repeated. “Also recorded” adds a separate entry of the source. Square brackets hold non-standard residues; d marks the D form. Peptide text beside a SMILES is read from it.

Tests used:
C. albicans [1] = assay: Killing of C. elegans by C. albicans (survival of infected nematodes); type: in vivo; settings: for Protection of C. elegans from C. albicans infection (survival): 1 nM peptide; for Median survival: C. albicans infected C. elegans exposed to 1 nM peptide, one value per trial
Description: The α7 helix is sufficient to protect C. elegans and inhibit surface adhesion. Based on this structural characterization, fragments of EntV were examined to identify those structural moieties that retained antifungal activity. Synthetic peptides were generated of each of the four alpha helices (plus two flanking amino acids) from the active C-terminus of EntV—α4, α5, α6 and α7 (FIG. 1A) as well as an α4-α6 construct. The peptides were tested for their ability to protect C. elegans against C. albicans infection as established in previous work (Cruz et al., 2013; Graham et al., 2017).
Killing of C. elegans by C. albicans. The methodology used for the C. elegans infection assays was performed, with a few modifications, as described ((Breger et al., 2007; Cruz et al., 2013; Graham et al., 2017; Peleg et al., 2008)). Briefly, C. elegans glp-4(bn2); sek-1(km-4) (Breger et al., 2007) nematodes were propagated and maintained on E. coli strain OP50(Brenner, 1974) that was seeded onto nematode growth medium (NGM) agar using standard techniques (Hope, 1999). To synchronize the animals, L1 stage worms on non-starved plates were washed off, filtered through a 10 μm filter (pluriSelect, pluriStrainer 10 μm), harvested by centrifugation, transferred to OP50 seeded plates, and grown to the L4 stage. To prepare the infection plates, C. albicans strain […] (Gillum et al., 1984) was grown in YPD broth for 24 h at 37° C. with agitation. 500 μl of the culture was plated onto BHI solid medium containing gentamycin (10 μg/ml) and grown for 24 h at 37° C. The synchronized, L4 C. elegans were washed off the OP50 plates in 2 ml sterile M9 buffer and washed once, centrifuging at 750×g for 30 seconds to collect animals. Animals were infected by placing them on the SC5314 lawn for 4 h at 25° C. Following this exposure, they were washed off the plate and washed four times with 2 ml of sterile M9. The nematodes were then pipetted (˜30 per well with 2 wells per condition for a total of ˜60 worms assayed) into six-well plates with 2 ml of liquid medium (20% BHI broth and 80% M9) containing the indicated concentrations of test compounds. Plates were incubated at 25° C., and worm death was scored daily. Kaplan-Meier survival curves were generated and analyzed as described in the quantification and statistical analysis section.

C. albicans [2] = assay: High-throughput Sytox Orange C. elegans infection assay, C. albicans; type: in vivo; settings: five days of infection; vs. DMSO control
Description: FIGS. 15A-15D: Secondary testing of gain-of-function variants from screen. (FIG. 15A) Survival over time of C. elegans infected with C. albicans and exposed to 1 nM of the indicated peptides. Statistical differences in survival were compared to animals in the exposure condition on the right of the legend (12aa-WT) by Mantel-Cox log rank analysis. An n of 30 animals was used and one representative trial is shown. (FIG. 15B) Percent survival as measured by the high-throughput Sytox Orange assay following five days of infection with C. albicans is shown. Means were calculated with the error bars representing the SEM. Statistical differences in survival were compared to animals in the untreated condition (DMSO) by one-way ANOVA followed by Dunnett's multiple comparison test. An n of 30 animals was used per experimental group. (FIG. 15C) Adhesion of C. albicans to tissue-culture treated plates following incubation with 10 nM of the indicated peptides is shown. A non-adherent strain (Δefg1/Δcph1) was used as a control. Means were calculated with the error bars representing the SEM. Statistical significance in comparison to the DMSO control group was determined using one-way ANOVA followed by Tukey's multiple comparison test. An n of three biological replicates, each with four technical replicates, was used. (FIG. 15D) Percent survival as measured by the high-throughput Sytox Orange assay following five days of infection with C. neoformans is shown. Means were calculated with the error bars representing the SEM. Statistical differences in survival were compared to animals in the untreated condition (DMSO) by one-way ANOVA followed by Dunnett's multiple comparison test. An n of 30 animals was used per experimental group.
High-throughput screening of this library was performed by employing established assays to assess antifungal agent efficacy. […] By using these assays in concert, each individual peptide was assessed using two approaches that probe different aspects of C. albicans virulence.

[3] = Peptide serum stability assay; type: in vitro ADME; settings: 10% human serum, 37° C., HPLC; read-out: Peptide remaining after 24 hours in human serum
Description: Peptide serum stability assay. One mL of RPMI supplemented with 10% (v/v) of human serum (type AB) were aliquoted and temperature-equilibrated at 37° C. for 15 min before adding a concentrated stock peptide solution resulting in a final peptide concentration of 100 μM. For each time point, 100 μL of the reaction solution was removed and added to 200 μL 96% ethanol for precipitation of serum proteins. The sample was cooled (4° C.) for 15 min and then spun at 18,000 g for 2 min to pellet the precipitated serum proteins. The reaction supernatant was analyzed using HPLC with absorbance detected at 280 nm. The peptide peak was detected first without serum treatment to assess the area under the curve for the peptide of interest. At each time point the area under the curve was calculated by HPLC and then divided by the untreated peptide area under the curve to determine the percent remaining.

C. albicans [4] = assay: Mouse OPC (oropharyngeal candidiasis) model; type: in vivo; settings: 100 nM in drinking water for 5 days following inoculation
Description: Mouse OPC model. The efficacy of EntV fragments were tested in the OPC model as described (Graham et al., 2017; Solis and Filler, 2012). Mice were immunosuppressed by injecting 225 mg/kg cortisone acetate subcutaneously 1 d before inoculation, and subsequently on days 1 and 3 of the infection. Group size was 6-8. To prepare the inoculum, 1 ml of C. albicans (SC5314) overnight culture grown at 30° C. in YPD broth was washed twice in PBS before resuspension in sterile Hanks' balanced salt solution (HBSS) at a concentration of 1×10^6 cells/mL. Calcium alginate swabs were soaked in this inoculum for 5 minutes prior to inoculation. Mice were anesthetized using ketamine and xylazine and placed on pre-warmed isothermal pads and the swabs were placed sublingually for 75 min. Mice were given additional doses of ketamine (50 mg/kg), as necessary. After inoculation, mice were given drinking water with EntV fragments or DMSO (0.01%) in the drinking water ad libitum. Mice were euthanized at 5 d after inoculation, unless noted. The tongues were excised and cut in half laterally for tissue histology and assessment of fungal burden.
For tissue histology the tongue sample was placed in 10% zinc-buffered formalin overnight and stored in 80% ethanol, before embedding in paraffin. For each tongue, 5 μm sections were prepared using a Leica microtome and stained using Periodic Acid-Schiff (PAS) stain. Epithelial invasion was measured from 40× images taken of the entire tissue section of each tongue half with the total area of epithelium and infected epithelium were measured using ImageJ (version 1.6). Measurements were totaled and expressed as a percentage of total infected epithelium relative to the entire epithelial area (Graham et al., 2017; Moyes et al., 2016).
For examination of fungal burden, qPCR was used by amplifying a 269-bp fragment of the internal transcribed spacer 2 (ITS2) between the 5.8S and 28S ribosomal RNA genes of C. albicans (Graham et al., 2017; Khot et al., 2009). DNA was extracted from homogenized tongue tissue using the Yeast DNA Extraction Kit (Thermo Scientific) according to the protocol with minor modifications. The ITS2 fragment was amplified by qPCR was performed with a CFX96 Real-Time System with a C1000 Touch thermal cycler (BioRad). C. albicans gDNA was quantified using FastStart Universal SYBR Green master mix with ROX (Roche). To screen for contamination and background fluorescence during the qPCR amplification, no template controls were used.

C. auris = assay: Survival of C. elegans infected with C. auris; type: in vivo; settings: 1 nM peptide
Description: FIGS. 6A-6D: EntV peptides have activity against many fungal species and strains. Survival over time of C. elegans infected with C. auris, (FIG. 6A), C. neoformans, (FIG. 6B), and C. albicans, (FIG. 6C), paired clinical isolates before (AzS: fluconazole-susceptability) and after gaining fluconazole resistance (AzR), (FIG. 6D). Peptides were added at 1 nM and fluconazole at 4 ug/ml. Statistical differences in survival were compared to animals to the DMSO vehicle control by Mantel-Cox log rank analysis. An n of 60 was used and one representative trial is shown. Exact p values from top to bottom: (FIG. 6A) <0.0001, <0.0001, (FIG. 6B) <0.0001, <0.0001, (FIG. 6C) 0.0013, 0.0004, 0.0035, (FIG. 6D) 0.0050, 0.0040, 0.5539.
EntV peptides have activity against other fungal species and strains. […] Paired clinical isolates of C. albicans, in which fluconazole-resistance had been gained following in-patient evolution were tested and it was determined that animals infected with both the original strain as well as the fluconazole-resistant descendent were protected by EntV ([…]).
Killing of C. elegans by C. albicans. […] Plates were incubated at 25° C., and worm death was scored daily. Kaplan-Meier survival curves were generated and analyzed as described in the quantification and statistical analysis section.

Cryptococcus neoformans = assay: High-throughput Sytox Orange C. elegans infection assay, C. neoformans; type: in vivo; settings: five days of infection; vs. DMSO control
Description: FIGS. 15A-15D: Secondary testing of gain-of-function variants from screen. (FIG. 15A) Survival over time of C. elegans infected with C. albicans and exposed to 1 nM of the indicated peptides. Statistical differences in survival were compared to animals in the exposure condition on the right of the legend (12aa-WT) by Mantel-Cox log rank analysis. An n of 30 animals was used and one representative trial is shown. (FIG. 15B) Percent survival as measured by the high-throughput Sytox Orange assay following five days of infection with C. albicans is shown. Means were calculated with the error bars representing the SEM. Statistical differences in survival were compared to animals in the untreated condition (DMSO) by one-way ANOVA followed by Dunnett's multiple comparison test. An n of 30 animals was used per experimental group. (FIG. 15C) Adhesion of C. albicans to tissue-culture treated plates following incubation with 10 nM of the indicated peptides is shown. […] Means were calculated with the error bars representing the SEM. Statistical significance in comparison to the DMSO control group was determined using one-way ANOVA followed by Tukey's multiple comparison test. […] (FIG. 15D) Percent survival as measured by the high-throughput Sytox Orange assay following five days of infection with C. neoformans is shown. Means were calculated with the error bars representing the SEM. […]

Compound | Protection of C. elegans from C. albicans infection (survival) (C. albicans [1]) | Survival of C. elegans by Sytox Orange assay, C. albicans (C. albicans [2]) | Fungal burden in the tongue (C. albicans DNA by qPCR) (C. albicans [4]) | Hyphal (epithelial) invasion of the tongue (C. albicans [4]) | Median survival (C. albicans [1]) | other results
LVLAFWAVVC [P3] | as effective in protecting the animals as the original 12aa peptide | statistically significant antifungal activity | – | – | – | –
CC(C)C[C@@H](NC(=O)[C@@H](C)NC(=O)[C@@H](CC(C)C)NC(=O)[C@@H](CCC(N)=O)NC(=O)CNC(=O)[C@@H](C)NC(=O)[C@H](N)C(C)C)C(=O)N[C@H](Cc1c[nH]c2ccccc12)C(=O)N[C@H](C)C(=O)N[C@@H](C(=O)N[C@H](CCC(N)=O)C(=O)N[C@H](CS)C(N)=O)C(C)C [12aa D-form peptide] (H-[dV][dA]G[dQ][dL][dA][dL][dW][dA][dV][dQ][dC]-NH2) | remained as effective as the original in protecting C. elegans against infection with C. albicans | – | – | – | – | remaining at 24 h, 100 μM [3]: ~35%
VVLALWAVQC [P1] | as effective in protecting the animals as the original 12aa peptide | statistically significant antifungal activity | significantly reduced | significantly reduced | – | –
TNAIIVAGQLALWAVQCG [α7] | protected C. elegans from C. albicans infection as well or better than full-length, active EntV^68 | – | – | – | 10.5 days and 12 days and 11 days and 10 days and 13 days and 14 days | Survival of C. elegans infected with C. auris (C. auris): protected animals from death
VLLALWALVC [P5] | as effective in protecting the animals as the original 12aa peptide | – | – | – | – | –
VQLALWAVQC [P4] | as effective in protecting the animals as the original 12aa peptide | statistically significant antifungal activity | significantly reduced; also recorded: more effective than P1 in reducing fungal burden | significantly reduced | – | –
GQLALWAVQC [10aa] | – | – | reduced fungal burden in the OPC model, but not to the same degree as the 12-mer | some reduction | 8 days and 9 days | Survival of C. elegans by Sytox Orange assay, C. neoformans (Cryptococcus neoformans): not effective
TNVGALWICGLAVIQAAQLS [α7 - random] | – | – | – | – | 7 days | –
TNAAAAQQGGIICLLVVWLS [α7 - disrupt] | – | – | – | – | 6 days | –
AGQLALWAVQC [11aa] | – | – | reduced fungal burden in the OPC model, but not to the same degree as the 12-mer | some reduction | 9 days and 10 days | –
